Measurements published in patent US10906899B2, “Bicyclic fused pyrazole derivatives for the treatment of RSV” (GEORGIA STATE UNIVERSITY RESEARCH FOUNDATION, INC., priority 2016, dated 2021).

system: RSV; experiment: Dose-response counterscreen: luciferase reporter virus infection of BEAS-2B cells (EC50); assay type: cell-based, respiratory syncytial virus (RSV); conditions: human respiratory syncytial virus, A series compounds, anti-RSV potency, read-out: Potency Range (EC50 values)

| SMILES | EC50 [nM] |
| --- | --- |
| COc1cc(C2CC(=O)Nc3[nH]ncc32)ccc1OC1CCCC1 (centres unmarked) [AVG-179] | > 20000 |
| COc1cc(C2CC(=O)Nc3c2cnn3-c2ccccn2)ccc1OC1CCCC1 (centres unmarked) [AVG-180] | 10000 to 20000 |
| COc1cc(C2CC(=O)Nc3nn(-c4ccccn4)cc32)ccc1OC1CCCC1 (centres unmarked) [AVG-180b] | 10000 to 20000 |
| COc1ccc(Cn2ncc3c2NC(=O)CC3c2ccc(OC3CCCC3)c(OC)c2)c(OC)c1 (centres unmarked) [AVG-181] | 1000 to 10000 |

same assay, conditions: human respiratory syncytial virus, B series compounds, read-out: Potency Range (EC50 values)

| SMILES | EC50 [nM] |
| --- | --- |
| Cc1c2c(=O)n(-c3nc4ccccc4s3)n(Cc3cocn3)c2cc(=O)n1Cc1ccco1 [AVG-125] | > 20000 |
| Cc1c2c(=O)n(-c3nc4ccccc4s3)n(Cc3cnco3)c2cc(=O)n1Cc1ccco1 [AVG-126] | 1000 to 10000 |
| Cc1c2c(=O)n(-c3ccccn3)n(Cc3ccccc3)c2cc(=O)n1Cc1ccccc1Cl [AVG-127] | 100 to 1000 |
| Cc1c2c(=O)n(-c3ccccn3)n(Cc3ccccc3)c2cc(=O)n1Cc1cccc(Cl)c1 [AVG-128] | 100 to 1000 |
| Cc1c2c(=O)n(-c3ccccn3)n(Cc3ccccc3)c2cc(=O)n1Cc1ccc(F)cc1 [AVG-129] | 100 to 1000 |
| Cc1c2c(=O)n(-c3ccccn3)n(Cc3ccccc3)c2cc(=O)n1Cc1ccccc1F [AVG-130] | 100 to 1000 |
| Cc1c2c(=O)n(-c3ccccn3)n(Cc3ccccc3)c2cc(=O)n1Cc1cccc(F)c1 [AVG-131] | 100 to 1000 |
| COc1ccc(Cn2c(C)c3c(=O)n(-c4ccccn4)n(Cc4ccccc4)c3cc2=O)cc1 [AVG-132] | 1000 to 10000 |
| COc1ccccc1Cn1c(C)c2c(=O)n(-c3ccccn3)n(Cc3ccccc3)c2cc1=O [AVG-133] | 100 to 1000 |
| COc1cccc(Cn2c(C)c3c(=O)n(-c4ccccn4)n(Cc4ccccc4)c3cc2=O)c1 [AVG-134] | 100 to 1000 |
| Cc1c2c(=O)n(-c3nc4ccccc4s3)n(C(C)c3ccccc3)c2cc(=O)n1Cc1ccccn1 (centres unmarked) [AVG-135] | 10000 to 20000 |
| Cc1cccc(Cn2c(C)c3c(=O)n(-c4nc5ccccc5s4)n(Cc4ccccc4)c3cc2=O)n1 [AVG-157] | 100 to 1000 |
| COc1cccc(Cn2c(C)c3c(=O)n(-c4nc5ccccc5s4)n(Cc4ccccc4)c3cc2=O)n1 [AVG-158] | 100 to 1000 |
| Cc1c2c(=O)n(-c3nc4ccccc4s3)n(Cc3ccccc3)c2cc(=O)n1Cc1cccc(C(C)C)n1 [AVG-159] | 10 to 100 |
| Cc1c2c(=O)n(-c3nc4ccccc4s3)n(Cc3ccccc3)c2cc(=O)n1Cc1cc(Cl)ccn1 [AVG-160] | 1000 to 10000 |
| Cc1c2c(=O)n(-c3nc4ccccc4s3)n(Cc3ccccc3)c2cc(=O)n1Cc1ncccc1Cl [AVG-161] | 1000 to 10000 |
| Cc1c2c(=O)n(-c3nc4ccccc4s3)n(Cc3ccccc3)c2cc(=O)n1Cc1cncc(Cl)n1 [AVG-162] | 10000 to 20000 |
| Cc1c2c(=O)n(-c3nc4ccccc4s3)n(Cc3ccccc3)c2cc(=O)n1Cc1cnc(Cl)cn1 [AVG-163] | 1000 to 10000 |
| Cc1c2c(=O)n(-c3nc4ccccc4s3)n(Cc3ccccc3)c2cc(=O)n1Cc1nccnc1Cl [AVG-164] | > 20000 |
| CCc1c2c(=O)n(-c3nc4ccccc4s3)n(Cc3ccccc3)c2cc(=O)n1Cc1cccc(Cl)n1 [AVG-165] | 1000 to 10000 |
| CC(C)c1c2c(=O)n(-c3nc4ccccc4s3)n(Cc3ccccc3)c2cc(=O)n1Cc1cccc(Cl)n1 [AVG-166] | 1000 to 10000 |
| Cc1c2c(=O)n(-c3nc4ccccc4s3)n(Cc3ccccc3)c2cc(=O)n1Cc1ccc(Cl)c(Cl)n1 [AVG-168] | 100 to 1000 |
| Cc1c2c(=O)n(-c3nc4ccccc4s3)n(Cc3ccccc3)c2cc(=O)n1Cc1cc(Cl)cc(Cl)n1 [AVG-169] | 100 to 1000 |
| Cc1c2c(=O)n(-c3nc4ccccc4s3)n(Cc3ccccc3)c2cc(=O)n1C(C)c1cccc(Cl)n1 (centres unmarked) [AVG-170] | 1000 to 10000 |
| Cc1c2c(=O)n(-c3ccccn3)n(Cc3ccccc3)c2cc(=O)n1Cc1cccc(Cl)n1 [AVG-171] | 10 to 100 |

| SMILES | EC50 [nM] |
| --- | --- |
| Cc1c2c(=O)n(-c3ccccn3)n(Cc3ccccc3)c2cc(=O)n1Cc1ccc(Cl)c(Cl)n1 [AVG-172] | 100 to 1000 |
| Cc1c2c(=O)n(-c3nc4ccccc4s3)n(Cc3ccc(Cl)cc3)c2cc(=O)n1Cc1cccc(Cl)n1 [AVG-173] | 100 to 1000 |
| Cc1c2c(=O)n(-c3nc4ccccc4s3)n(Cc3cccc(Cl)c3)c2cc(=O)n1Cc1cccc(Cl)n1 [AVG-174] | 1000 to 10000 |
| Cc1c2c(=O)n(-c3nc4ccccc4s3)n(Cc3ccccc3Cl)c2cc(=O)n1Cc1cccc(Cl)n1 [AVG-175] | 1000 to 10000 |
| COc1ccccc1Cn1c2cc(=O)n(Cc3cccc(Cl)n3)c(C)c2c(=O)n1-c1nc2ccccc2s1 [AVG-176] | 100 to 1000 |
| COc1cccc(Cn2c3cc(=O)n(Cc4cccc(Cl)n4)c(C)c3c(=O)n2-c2nc3ccccc3s2)c1 [AVG-177] | 100 to 1000 |
| COc1ccc(Cn2c3cc(=O)n(Cc4cccc(Cl)n4)c(C)c3c(=O)n2-c2nc3ccccc3s2)cc1 [AVG-178] | 10 to 100 |
| Cc1c2c(=O)n(-c3nc4c(Cl)cccc4s3)n(Cc3ccccc3)c2cc(=O)n1Cc1cccc(Cl)n1 [AVG-183] | 10 to 100 |
| Cc1c2c(=O)n(-c3nc4cc(Cl)ccc4s3)n(Cc3ccccc3)c2cc(=O)n1Cc1cccc(Cl)n1 [AVG-184] | 1000 to 10000 |
| Cc1c2c(=O)n(-c3nc4ccc(Cl)cc4s3)n(Cc3ccccc3)c2cc(=O)n1Cc1cccc(Cl)n1 [AVG-185] | 100 to 1000 |
| COc1cccc2sc(-n3c(=O)c4c(C)n(Cc5cccc(Cl)n5)c(=O)cc4n3Cc3ccccc3)nc12 [AVG-187] | 100 to 1000 |
| COc1ccc2sc(-n3c(=O)c4c(C)n(Cc5cccc(Cl)n5)c(=O)cc4n3Cc3ccccc3)nc2c1 [AVG-188] | 100 to 1000 |
| COc1ccc2nc(-n3c(=O)c4c(C)n(Cc5cccc(Cl)n5)c(=O)cc4n3Cc3ccccc3)sc2c1 [AVG-189] | 10 to 100 |
| Cc1cccc2sc(-n3c(=O)c4c(C)n(Cc5cccc(Cl)n5)c(=O)cc4n3Cc3ccccc3)nc12 [AVG-191] | 100 to 1000 |
| Cc1ccc2sc(-n3c(=O)c4c(C)n(Cc5cccc(Cl)n5)c(=O)cc4n3Cc3ccccc3)nc2c1 [AVG-192] | 100 to 1000 |
| Cc1ccc2nc(-n3c(=O)c4c(C)n(Cc5cccc(Cl)n5)c(=O)cc4n3Cc3ccccc3)sc2c1 [AVG-193] | 100 to 1000 |
| Cc1cccc2nc(-n3c(=O)c4c(C)n(Cc5cccc(Cl)n5)c(=O)cc4n3Cc3ccccc3)sc12 [AVG-194] | 100 to 1000 |
| Cc1c2c(=O)n(-c3nc4ncccc4s3)n(Cc3ccccc3)c2cc(=O)n1Cc1cccc(Cl)n1 [AVG-195] | 10 to 100 |
| Cc1c2c(=O)n(-c3nc4cnccc4s3)n(Cc3ccccc3)c2cc(=O)n1Cc1cccc(Cl)n1 [AVG-196] | 10000 to 20000 |
| Cc1c2c(=O)n(-c3nc4ccncc4s3)n(Cc3ccccc3)c2cc(=O)n1Cc1cccc(Cl)n1 [AVG-197] | 10 to 100 |
| Cc1c2c(=O)n(-c3nc4cccnc4s3)n(Cc3ccccc3)c2cc(=O)n1Cc1cccc(Cl)n1 [AVG-198] | 100 to 1000 |
| COc1ccc(Cn2c(=O)c3c(C)n(Cc4ccccn4)c(=O)cc3n2Cc2ccccc2)cc1 [AVG-199] | 10000 to 20000 |
| Cc1c2c(=O)[nH]n(Cc3ccccc3)c2cc(=O)n1Cc1ccccn1 [AVG-200] | > 20000 |
| Cc1c2c(=O)n(-c3nc4ccccc4s3)n(Cc3ccccc3)c2cc(=O)n1Cc1cccc(C(F)(F)F)n1 [AVG-201] | 100 to 1000 |
| COc1cccc(Cn2c(C)c3c(=O)n(-c4ccccn4)n(Cc4ccccc4)c3cc2=O)n1 [AVG-203] | 10 to 100 |

| SMILES | EC50 [nM] |
| --- | --- |
| CCOc1cccc(Cn2c(C)c3c(=O)n(-c4nc5ccccc5s4)n(Cc4ccccc4)c3cc2=O)n1 [AVG-204] | 100 to 1000 |
| Cc1c2c(=O)n(-c3nc4ccccc4s3)n(Cc3ccccc3)c2cc(=O)n1Cc1cccc(OC(C)C)n1 [AVG-205] | 100 to 1000 |
| Cc1c2c(=O)n(-c3nc4ccccc4s3)n(Cc3ccccc3)c2cc(=O)n1Cc1cccc(OCCN(C)C)n1 [AVG-206] | 1000 to 10000 |
| Cc1c2c(=O)n(-c3nc4ccccc4s3)n(Cc3ccccc3)c2cc(=O)n1Cc1cccc(OCCCN(C)C)n1 [AVG-207] | 1000 to 10000 |
| Cc1c2c(=O)n(-c3nc4ccccc4s3)n(Cc3ccccc3)c2cc(=O)n1Cc1cccc(OC2CCN(C)CC2)n1 [AVG-208] | 1000 to 10000 |
| Cc1c2c(=O)n(-c3nc4ccccc4s3)n(Cc3ccccc3)c2cc(=O)n1CC1CCCC(=O)N1 (centres unmarked) [AVG-210] | 10000 to 20000 |
| Cc1c2c(=O)n(-c3nc4ccccc4s3)n(Cc3ccccc3)c2cc(=O)n1CC1CCC(=O)N1C (centres unmarked) [AVG-212] | 10000 to 20000 |
| Cc1c2c(=O)n(-c3nc4ccccc4s3)n(Cc3ccccc3)c2cc(=O)n1CC1CCC(=O)N1 (centres unmarked) [AVG-213] | 1000 to 10000 |
| Cc1c2c(=O)n(-c3nc4ccccc4s3)n(Cc3ccccc3)c2cc(=O)n1Cc1cccc(F)n1 [AVG-214] | 100 to 1000 |
| Cc1c2c(=O)n(-c3nc4ccccc4s3)n(Cc3ccccc3)c2cc(=O)n1Cc1cccc(N2CCN(C)CC2)n1 [AVG-225] | 100 to 1000 |
| Cc1c2c(=O)n(-c3nc4ccccc4s3)n(Cc3ccccc3)c2cc(=O)n1Cc1cccc(C2CCOCC2)n1 [AVG-227] | 100 to 1000 |
| Cc1c2c(=O)n(-c3nc4ccccc4s3)n(Cc3ccccc3)c2cc(=O)n1Cc1cccc(N2CCOCC2)n1 [AVG-228] | 100 to 1000 |
| Cc1c2c(=O)n(-c3ccccn3)n(Cc3ccccc3)c2cc(=O)n1Cc1cccc(-c2ccccc2)n1 [AVG-229] | 100 to 1000 |
| Cc1c2c(=O)n(-c3ccccn3)n(Cc3ccccc3)c2cc(=O)n1Cc1cccc(OC(C)C)n1 [AVG-230] | 100 to 1000 |
| COc1ccc(Cn2c3cc(=O)n(Cc4cccc(OC)n4)c(C)c3c(=O)n2-c2nc3ccccc3s2)cc1 [AVG-231] | 10 to 100 |
| COc1ccc(Cn2c3cc(=O)n(Cc4cccc(OC)n4)c(C)c3c(=O)n2-c2ccccn2)cc1 [AVG-232] | 10 to 100 |
| COc1ccc(Cn2c3cc(=O)n(Cc4cccc(Cl)n4)c(C)c3c(=O)n2-c2ccccn2)cc1 [AVG-233] | 10 to 100 |
| Cc1c2c(=O)n(-c3ccccn3)n(Cc3ccc(OC(C)C)cc3)c2cc(=O)n1Cc1cccc(Cl)n1 [AVG-234] | 100 to 1000 |
| Cc1c2c(=O)n(-c3ccccn3)n(Cc3ccccc3)c2cc(=O)n1Cc1nccs1 [AVG-239] | 1000 to 10000 |
| COc1cccc(Cn2c(C)c3c(=O)n(-c4cc(Cl)ccn4)n(Cc4ccccc4)c3cc2=O)n1 [AVG-245] | 100 to 1000 |
| Cc1c2c(=O)n(-c3ccccn3)n(Cc3ccccc3)c2cc(=O)n1Cc1nc(Cl)cs1 [AVG-252] | 100 to 1000 |
| COc1cccc(Cn2c(C)c3c(=O)n(-c4ccccn4)n(Cc4ccc(OC(C)C)cc4)c3cc2=O)n1 [AVG-253] | 100 to 1000 |
| COc1ccc(Cn2c3cc(=O)n(Cc4cccc(OC(C)C)n4)c(C)c3c(=O)n2-c2ccccn2)cc1 [AVG-254] | 100 to 1000 |
